In brackets after ≈: the same amount, converted by molar mass.
Tests used:
[1] = tested on: Proteus vulgaris (ATCC 33420); assay: MIC, spectrum of activity: Proteus vulgaris; format: cell-based; details: ATCC33420
[2] = rats; IV 10 mg/kg and oral 100 mg/kg
[3] = tested on: Staphylococcus aureus (NRS70); assay: MIC, spectrum of activity: MRSA; format: cell-based; details: read-out: Minimum Inhibitory Concentration, MRSA
[4] = tested on: E. coli K12 ∆tolC; format: cell-based; details: E. coli K12 ∆tolC (efflux pump deficient)

Question: Which results are given for `O=[N+]([O-])c1ccc(C2=NOC(c3ccc(N4CCC(Oc5ccc(OC(F)(F)F)cc5)CC4)cc3)C2)o1` (stereo not shown) [Compound 9a, 3-(5-Nitrofuran-2-yl)-5-(4-(4-(4-(trifluoromethoxy)phenoxy)piperidin-1-yl)phenyl)-4,5-dihydroisoxazole]?
Answer: MIC [1]: > 200 µg/mL; Toxicity by intravenous and oral dosing [2]: non-toxic; MIC [3]: 50 µg/mL (≈ 96.6 µM); Minimum Inhibitory Concentration, E.c. ΔtolC [4]: 50 µg/mL

From article PMC3914891, “Pentacyclic Nitrofurans with In Vivo Efficacy and Activity against Nonreplicating Mycobacterium tuberculosis” (PLoS ONE, 2014)
